Data on 19 compounds can be found in patent EP4796530A1 (Biocells (Beijing) Biotech Co., Ltd., priority 2023, dated 2025).

SMILES strings stand for the structures. Where two headings read alike, the source gives them in different places. Where only a bound is given, the exact number is not on record here.

In general, inhibition refers to the change of the read-out against control, counted positive when it falls. For orientation: half-life means the time in which the quantity being followed falls by half. Read a high half-life as slow loss. One may read the AUC as concentration integrated over time.

Data set [1] deals with T1, NLRP3 (Mus musculus, UniProt Q8R4B8). The experiment in a line: Inhibition of canonical NLRP3 activation (LPS+ATP/Nig) in J774A.1 cells, IL-1β release by ELISA, single concentration. Also noted: The mouse macrophage cell line J774A.1 was used, and LPS was used as the first signal; host or cells: J774A.1 mouse monocyte-macrophage cell line. It counts as cell-based. Here is the method:
J774A.1 cells were plated in a 48-well plate at a density of 1.0×10^6 cells/mL, with 300 µL per well. Subsequently, NLRP3 was activated using LPS+5 mM ATP (adenosine triphosphate) or 10 µM Nig (nigericin). […] ATP was purchased from Sigma, Cat. No.: L2654. Nig was purchased from Shanghai Yuanye Bio-Technology Co., Ltd., Cat. No.: S45490.
Experimental groups: a negative control group, an LPS-alone incubation control group, an LPS+ATP or +Nig positive control group, and an example compound experimental group.
After the plated J774A.1 cells adhering to the plate, the culture medium was replaced. For all the groups except the negative control group, the culture medium was completely replaced with cell culture medium containing 1 µg/mL LPS. The negative control group received cell culture medium. Then, all the groups were incubated overnight. 18 h later, the culture medium was replaced again. The culture medium of the example compound experimental group was completely replaced with cell culture medium containing the compounds; while the negative control group, the LPS-alone incubation control group, and the LPS+ATP/Nig positive control group received cell culture medium. 1 h later, the culture mediums of the LPS+ATP/Nig positive control group and the example compound experimental group were completely replaced with cell culture medium containing 5 mM ATP or 10 µM Nig. 1 h later, the cell supernatants were collected for IL-1β detection.
Therefore, the relative change in the amount of IL-1β release may directly reflect NLRP3 inhibitory effect.

Data set [2] concerns the target T1, NLRP3. The experiment in a line: Inhibition of APOE peptide-induced NLRP3 activation in J774A.1 cells, IL-1β release. It counts as cell-based. Also noted: The mouse macrophage cell line J774A.1 was used, and LPS was used as the first signal; host or cells: J774A.1 mouse monocyte-macrophage cell line. The conditions noted are these: J774.A1, 10 µM compound, 30 µg/mL APOE peptide. Here is the method: J774A.1 cells were plated in a 48-well plate at a density of 1.0×10^6 cells/mL, with 300 µL per well. Subsequently, NLRP3 was activated by APOE peptide. The cell culture medium comprises: DMEM (brand: Gibco, Cat. No.: C12430500) + 10% fetal bovine serum (brand: Gibco, Cat. No.: 10099-141) + 1% sodium pyruvate (brand: Gibco, Cat. No.: 11360-070) + 1% penicillin-streptomycin solution (brand: Solarbio, Cat. No.: P1400). The J774A.1 mouse monocyte-macrophage cell line was purchased from the Cell Resource Center of the Institute of Basic Medical Sciences of Chinese Academy of Medical Sciences (Resource No. 1101MOU-PUMC000222). APOE2/3 peptide 1-151 was obtained through recombinant protein expression and purification by Biocells (Beijing) Biotech Co., Ltd. The procedures were as follows: the sequence (SEQ ID NO: 1) shown below was inserted into the pET-28A plasmid and transformed into BL-21(DE3) expression strain; the expression of target protein was induced with IPTG at a low temperature; after collecting the bacteria via centrifugation, ultrasonic disruption was performed; and after centrifugation, the supernatant was purified by nickel ion affinity chromatography (AKTA pure), and then the product was concentrated by ultrafiltration and identified by BCA+protein electrophoresis. Sequence: [formula]
Experimental groups: a negative control group, an APOE treatment control group, and an example compound experimental group.
After the plated J774A.1 cells adhering to the plate, the culture medium was replaced. The culture medium of the APOE treatment control group was replaced with cell culture medium containing 30 µg/mL APOE peptide, the culture medium of the example compound experimental group was replaced with culture medium containing 30 µg/mL APOE peptide combined with the compounds, and the negative control group received cell culture medium. Then, all the groups were incubated overnight. 18 h later, the cell supernatants were collected for IL-1β detection.
Activation of NLRP3 by APOE peptide will result in release of mature IL-1β, and the release can be inhibited by NLRP3 inhibitors. Therefore, the relative change in the amount of IL-1β release may directly reflect NLRP3 inhibitory effect.
In this experimental example, effective inhibition refers to a reduction of 70% or more in the release amount, compared with the release amount of the positive control minus the negative control.

A short description of data set [3]: Mouse pharmacokinetics after intravenous administration (plasma and brain, LC-MS). It is filed as in vivo. The conditions noted are these: C57 mice, intravenous 5 mg/kg. Here is the method:
C57 mice were administered intravenously, at a dosage concentration of 5 mg/kg in each group. Retro-orbital blood collection was performed on the mice at 1 min, 30 min, 1 h, and 2 h post-dosing. The collected blood was centrifuged at 3000 rpm for 10 min at 4 °C to obtain plasma. Acetonitrile was added at a 1:3 volume ratio of plasma: acetonitrile to precipitate proteins. After centrifugation, the supernatant was collected and filtered. The concentration of the compound was detected using LC-MS (Agilent 1260-G6125, SIM mode). In addition, 2 h after drug injection, the mice were subjected to cardiac perfusion and then their brains were harvested. Following tissue homogenization and centrifugation, the supernatant was collected. Acetonitrile was added at a 1:3 volume ratio of supernatant: acetonitrile to precipitate proteins. After centrifugation, the supernatant was collected and filtered. The concentration of the compound was detected using LC-MS (Agilent 1260-G6125, SIM mode).
Experimental groups: a vehicle control group, and a dosing group.

[4] abbreviates: J774.A1, 1 µM compound, LPS + 5 mM ATP or 10 µM Nig, compared with the positive control, read-out: inhibition of IL-1β release.

T1 sequence (Q8R4B8 whole entry): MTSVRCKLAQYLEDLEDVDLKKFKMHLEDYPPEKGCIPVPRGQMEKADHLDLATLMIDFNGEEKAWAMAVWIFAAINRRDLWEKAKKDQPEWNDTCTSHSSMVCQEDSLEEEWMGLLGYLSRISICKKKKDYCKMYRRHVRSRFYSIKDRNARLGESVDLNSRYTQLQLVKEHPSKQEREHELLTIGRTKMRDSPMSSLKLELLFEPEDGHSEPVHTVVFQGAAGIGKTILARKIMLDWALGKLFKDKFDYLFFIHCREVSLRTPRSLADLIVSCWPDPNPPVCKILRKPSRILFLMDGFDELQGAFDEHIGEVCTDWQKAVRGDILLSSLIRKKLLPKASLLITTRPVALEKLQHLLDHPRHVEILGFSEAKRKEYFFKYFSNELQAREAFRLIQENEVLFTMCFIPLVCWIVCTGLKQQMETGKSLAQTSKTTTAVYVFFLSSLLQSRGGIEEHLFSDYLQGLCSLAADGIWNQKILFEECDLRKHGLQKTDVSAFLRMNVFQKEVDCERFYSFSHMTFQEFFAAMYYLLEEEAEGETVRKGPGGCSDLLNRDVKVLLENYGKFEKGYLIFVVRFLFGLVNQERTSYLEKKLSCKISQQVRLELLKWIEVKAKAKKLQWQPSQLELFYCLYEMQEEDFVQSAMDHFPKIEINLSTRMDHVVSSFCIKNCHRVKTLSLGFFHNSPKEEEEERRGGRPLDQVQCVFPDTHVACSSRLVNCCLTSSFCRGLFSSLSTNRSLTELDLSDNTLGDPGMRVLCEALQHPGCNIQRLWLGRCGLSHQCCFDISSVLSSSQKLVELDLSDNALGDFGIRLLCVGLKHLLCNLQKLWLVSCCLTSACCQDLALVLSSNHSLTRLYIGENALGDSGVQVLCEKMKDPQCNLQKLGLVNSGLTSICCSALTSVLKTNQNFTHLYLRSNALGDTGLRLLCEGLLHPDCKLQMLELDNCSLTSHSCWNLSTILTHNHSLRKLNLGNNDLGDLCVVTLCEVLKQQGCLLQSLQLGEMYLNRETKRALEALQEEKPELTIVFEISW

On to `CN(C)Cc1ccc(F)c(S(=O)(=O)NC(=O)Nc2c3c(cc4c2CCC4)CCC3)c1` [Example 2, 5-((dimethylamino)methyl)-2-fluoro-N-((1,2,3,5,6,7-hexahydro-s-indacen-4-yl)carbamoyl)benzenesulfonamide], for which, at NLRP3 [1] (setting [4]), the inhibition at 1 µM is above 80%.

On to `CN(C)Cc1cc(S(=O)(=O)NC(=O)Nc2c3c(cc4c2CCC4)CCC3)ccc1OCc1ccccc1` [Example 4], for which the inhibition at 1 µM on NLRP3 [1] (J774.A1, read-out: inhibition of IL-1β release, 1 µM compound, LPS + 5 mM ATP or 10 µM Nig, compared with the positive control) was above 80%.

`CN(C)Cc1cc(S(=O)(=O)NC(=O)Nc2c3c(cc4c2CCC4)CCC3)ccc1F` [Example 6, 3-((dimethylamino)methyl)-4-fluoro-N-((1,2,3,5,6,7-hexahydro-s-indacen-4-yl)carbamoyl)benzenesulfonamide]: the inhibition at 1 µM at NLRP3 [1] (setting [4]) was above 80%.

`CN(C)Cc1cc(S(=O)(=O)NC(=O)Nc2c3c(cc4c2CCC4)CCC3)ccc1N` [Example 7, 4-amino-3-((dimethylamino)methyl)-N-((1,2,3,5,6,7-hexahydro-s-indacen-4-yl)carbamoyl)benzenesulfonamide]: on NLRP3 [1] (setting [4]), the inhibition at 1 µM is above 80%.

Regarding `CN(C)Cc1cc(S(=O)(=O)NC(=O)Nc2c3c(cc4c2CCC4)CCC3)ccc1Cl` [Example 8, 4-chloro-3-((dimethylamino)methyl)-N-((1,2,3,5,6,7-hexahydro-s-indacen-4-yl)carbamoyl)benzenesulfonamide], the inhibition at 1 µM at NLRP3 [1] (setting [4]) lay in the range of 20 to 80%.

`CN(C)Cc1cc(S(=O)(=O)NC(=O)Nc2c3c(cc4c2CCC4)CCC3)ccc1OC(F)(F)F` [Example 9, 3-((dimethylamino)methyl)-N-((1,2,3,5,6,7-hexahydro-s-indacen-4-yl)carbamoyl)-4-(trifluoromethoxy)benzenesulfonamide]: the inhibition at 1 µM at NLRP3 [1] (setting [4]) was 20 to 80%.

With `CN(C)Cc1ccc(Cl)c(S(=O)(=O)NC(=O)Nc2c3c(cc4c2CCC4)CCC3)c1` [Example 10, 2-chloro-5-((dimethylamino)methyl)-N-((1,2,3,5,6,7-hexahydro-s-indacen-4-yl)carbamoyl)benzenesulfonamide], the inhibition at 1 µM at NLRP3 [1] (setting [4]) was above 80%.

Regarding `CN(C)Cc1ccc([N+](=O)[O-])c(S(=O)(=O)NC(=O)Nc2c3c(cc4c2CCC4)CCC3)c1` [Example 11, 5-((dimethylamino)methyl)-N-((1,2,3,5,6,7-hexahydro-s-indacen-4-yl)carbamoyl)-2-nitrobenzenesulfonamide], the inhibition at 1 µM at NLRP3 [1] (setting [4]) is above 80%.

Turning to `CN(C)Cc1ccc(N)c(S(=O)(=O)NC(=O)Nc2c3c(cc4c2CCC4)CCC3)c1` [Example 12, 2-amino-5-((dimethylamino)methyl)-N-((1,2,3,5,6,7-hexahydro-s-indacen-4-yl)carbamoyl)benzenesulfonamide], the inhibition at 1 µM at NLRP3 [1] (setting [4]) was 20 to 80%.

On to `CCN(CC)Cc1cc(S(=O)(=O)NC(=O)Nc2c3c(cc4c2CCC4)CCC3)ccc1OC` [Example 13], for which, at NLRP3 [1] (1 µM compound, LPS + 5 mM ATP or 10 µM Nig, compared with the positive control), the “inhibition of IL-1β release” value is given as “no inhibitory effect”.

For the compound `CCOc1ccc(S(=O)(=O)NC(=O)Nc2c3c(cc4c2CCC4)CCC3)cc1CN(C)C` [Example 14, 3-((dimethylamino)methyl)-4-ethoxy-N-((1,2,3,5,6,7-hexahydro-s-indacen-4-yl)carbamoyl)benzenesulfonamide], the inhibition at 1 µM on NLRP3 [1] (setting [4]) was above 80%. The same compound showed an inhibition at 10 µM on NLRP3 [2] of at least 70%.

Regarding `CC(C)Oc1ccc(S(=O)(=O)NC(=O)Nc2c3c(cc4c2CCC4)CCC3)cc1CN(C)C` [Example 15, 3-((dimethylamino)methyl)-N-((1,2,3,5,6,7-hexahydro-s-indacen-4-yl)carbamoyl)-4-isopropoxybenzenesulfonamide], at NLRP3 [1] (setting [4]), the inhibition at 1 µM was above 80%.

`COc1c(F)cc(S(=O)(=O)NC(=O)Nc2c3c(cc4c2CCC4)CCC3)cc1CN(C)C` [Example 16, 3-((dimethylamino)methyl)-5-fluoro-N-((1,2,3,5,6,7-hexahydro-s-indacen-4-yl)carbamoyl)-4-methoxybenzenesulfonamide]: the inhibition at 1 µM at NLRP3 [1] (setting [4]) is 20 to 80%.

With `CN(C)Cc1cccc(S(=O)(=O)NC(=O)Nc2c3c(cc4c2CCC4)CCC3)c1[N+](=O)[O-]` [Example 18, 3-((dimethylamino)methyl)-N-((1,2,3,5,6,7-hexahydro-s-indacen-4-yl)carbamoyl)-2-nitrobenzenesulfonamide], at NLRP3 [1] (setting [4]), the inhibition at 1 µM was above 80%. The compound also displayed an inhibition at 10 µM against NLRP3 [2] of at least 70%.

Turning to `COc1cc(F)c(S(=O)(=O)NC(=O)Nc2c3c(cc4c2CCC4)CCC3)cc1CN(C)C` [Example 20, 5-((dimethylamino)methyl)-2-fluoro-N-((1,2,3,5,6,7-hexahydro-s-indacen-4-yl)carbamoyl)-4-methoxybenzenesulfonamide], the inhibition at 1 µM at NLRP3 [1] (setting [4]) was above 80%. Moreover, at NLRP3 [2], the inhibition at 10 µM is at least 70%.

`CN(C)Cc1c(F)ccc(S(=O)(=O)NC(=O)Nc2c3c(cc4c2CCC4)CCC3)c1F` [Example 23, 3-((dimethylamino)methyl)-2,4-difluoro-N-((1,2,3,5,6,7-hexahydro-s-indacen-4-yl)carbamoyl)benzenesulfonamide]: the inhibition at 1 µM on NLRP3 [1] (setting [4]) is above 80%. The compound further displayed an inhibition at 10 µM at NLRP3 [2] of at least 70%.

As to `CN(C)Cc1cccc(S(=O)(=O)NC(=O)Nc2c3c(cc4c2CCC4)CCC3)c1F` [Example 24, 3-((dimethylamino)methyl)-2-fluoro-N-((1,2,3,5,6,7-hexahydro-s-indacen-4-yl)carbamoyl)benzenesulfonamide], at NLRP3 [1] (setting [4]), the inhibition at 1 µM was above 80%. The compound also gave an inhibition at 10 µM at NLRP3 [2] of at least 70%.

Turning to `COc1ccc(S(=O)(=O)NC(=O)Nc2c3c(cc4c2CCC4)CCC3)c(Cl)c1CN(C)C` [Example 28, 2-chloro-3-((dimethylamino)methyl)-N-((1,2,3,5,6,7-hexahydro-s-indacen-4-yl)carbamoyl)-4-methoxybenzenesulfonamide], the inhibition at 1 µM at NLRP3 [1] (setting [4]) was above 80%.

With `CN1CCc2ccc(S(=O)(=O)NC(=O)Nc3c4c(cc5c3CCC5)CCC4)cc2C1` [Example 29, N-((1,2,3,5,6,7-hexahydro-s-indacen-4-yl)carbamoyl)-2-methyl-1,2,3,4-tetrahydroisoquinoline-7-sulfonamide], in data set [3] (brain after cardiac perfusion, read-out: brain drug concentration at 120 min), the concentration at 120 min turned out to be 197 ng/mL. Further, the half-life in data set [3] (plasma) turned out to be 1.65 h. For the same compound, the area under the curve (AUC) in data set [3] (plasma, read-out: area under the curve (AUC) from 1 to 120 min) turned out to be 14900 ng·h/mL.
